Source: ChEMBL document CHEMBL4251679 (J Nat Prod, 2018)
Calls of active or inactive are those of the source. The rule behind the calls is not given here.

Columns and labels:
[1] = species on record: Bos taurus; test: Inhibition of [3H]2-m-AzTax binding to bovine brain beta-tubulin at 20 uM treated for 30 mins followed by UV irradiation for 10 mins by fluorographic method relative to control
[2] = species on record: Homo sapiens; test: Binding affinity to P-gp in human SKVLB1 cells assessed as increase in [3H]vinblastine accumulation at 40 uM after 1 hr by liquid scintillation counting method; format: cell-based
[3] = Cytotoxicity against human Hey/EpoB8 cells after 72 to 120 hrs by sulforhodamine B assay; format: functional, cell-based
[4] = species on record: Homo sapiens; test: Inhibition of [3H]2-m-AzTax binding to P-gp in human SKVLB1 cell plasma membranes at 40 uM treated for 30 mins followed by UV irradiation for 10 mins by fluorographic method relative to control
[5] = target: Tubulin beta-4 chain (Gallus gallus) (UniProt P09652); test: Inhibition of [3H]2-m-AzTax binding to chicken erythrocyte beta-tubulin 4 at 20 uM treated for 30 mins followed by UV irradiation for 10 mins by fluorographic method relative to control
Tubulin beta-4 chain (Gallus gallus), sequence (P09652 whole entry): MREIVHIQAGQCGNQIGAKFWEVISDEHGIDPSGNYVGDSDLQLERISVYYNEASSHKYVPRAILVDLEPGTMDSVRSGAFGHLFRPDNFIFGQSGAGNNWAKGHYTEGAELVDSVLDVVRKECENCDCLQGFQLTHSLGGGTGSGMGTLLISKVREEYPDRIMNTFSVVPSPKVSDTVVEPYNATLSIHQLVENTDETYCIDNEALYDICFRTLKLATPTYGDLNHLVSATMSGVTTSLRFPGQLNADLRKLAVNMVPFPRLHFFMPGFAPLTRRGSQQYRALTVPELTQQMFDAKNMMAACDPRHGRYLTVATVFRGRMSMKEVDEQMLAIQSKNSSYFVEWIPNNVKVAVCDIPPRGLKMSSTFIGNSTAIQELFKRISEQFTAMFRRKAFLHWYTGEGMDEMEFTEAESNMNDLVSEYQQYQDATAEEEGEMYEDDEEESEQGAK

[6] = system: HEY; test: Cytotoxicity against human HEY cells after 72 to 120 hrs by sulforhodamine B assay; format: functional, cell-based
[7] = Cytotoxicity against vinblastine-resistant human SKVLB1 cells after 72 to 120 hrs by sulforhodamine B assay; format: functional, cell-based
[8] = system: SK-OV-3; test: Effect on [3H]vinblastine accumulation in human SKOV3 cells at 40 uM after 1 hr by liquid scintillation counting method; format: functional, cell-based
[9] = Substrate activity at P-gp in human SKVLB1 cells assessed as inhibition of cell growth after 72 to 120 hrs in presence of verapamil by sulforhodamine B assay; format: cell-based
[10] = system: SK-OV-3; test: Cytotoxicity against human SKOV3 cells after 72 to 120 hrs in presence of verapamil by sulforhodamine B assay; format: functional, cell-based
[11] = Substrate activity at P-gp in human SKVLB1 cells assessed as inhibition of cell growth after 72 to 120 hrs by sulforhodamine B assay; format: cell-based
[12] = system: SK-OV-3; test: Cytotoxicity against human SKOV3 cells after 72 to 120 hrs by sulforhodamine B assay; format: functional, cell-based
[13] = Cytotoxicity against human Hey/Ixab80 cells after 72 to 120 hrs by sulforhodamine B assay; format: functional, cell-based
[14] = species on record: Homo sapiens; test: Inhibition of [3H]2-m-AzTax binding to P-gp in human SKVLB1 cell plasma membranes assessed as residual [3H]2-m-AzTax binding at 40 uM treated for 30 mins followed by UV irradiation measured after 10 mins by fluorographic method relative to control
[15] = Cytotoxicity against human Hey/Tx100 cells after 72 to 120 hrs by sulforhodamine B assay; format: functional, cell-based
[16] = Resistance index, ratio of IC50 for human HEY/Tx100 cells to IC50 for human HEY cells; format: functional
[17] = Resistance index, ratio of IC50 for vinblastine-resistant human SKVLB1 cells to IC50 for human SKOV3 cells; format: functional
[18] = Resistance index, ratio of IC50 for human HEY/Ixab80 cells to IC50 for human HEY cells; format: functional
[19] = Resistance index, ratio of IC50 for human HEY/EpoB8 cells to IC50 for human HEY cells; format: functional
[20] = system: P-gp; test: Resistance index, ratio of IC50 for substrate activity at P-gp in human SKVLB1 cells assessed as inhibition of cell growth to IC50 for human SKOV3 cells; format: toxicity, cell-based; details: SKVLB1 cells (P-gp) versus SKOV3 cells, read-out: Ratio IC50
[21] = Ratio of fold resistance for substrate activity at P-gp in human SKVLB1 cells relative to sensitive human SKOV3 cells in absence of verapamil to fold resistance for substrate activity at P-gp in human SKVLB1 cells relative to sensitive human SKOV3 cells in presence of verapamil; format: toxicity, cell-based
[22] = system: P-gp; test: Resistance index, ratio of IC50 for substrate activity at P-gp in human SKVLB1 cells assessed as inhibition of cell growth in presence of verapamil to IC50 for human SKOV3 cells in presence of verapamil; format: toxicity, cell-based; details: SKVLB1 cells (P-gp) versus SKOV3 cells, with verapamil (concentration not stated), read-out: Ratio IC50

SMILES	inhibition [1] [%]	inhibition [4]	inhibition [5] [%]	Activity [14] [%]	Activity [2]	IC50 [3] [nM]	IC50 [6] [nM]	IC50 [7] [nM]	Activity [8]	IC50 [9] [nM]	IC50 [10] [nM]	IC50 [11] [nM]	IC50 [12] [nM]	IC50 [13] [nM]	IC50 [15] [nM]	Ratio IC50 [16]	Ratio IC50 [17]	Ratio IC50 [18]	Ratio IC50 [19]	other results
CC(=O)O[C@@]12CO[C@@H]1C[C@H](O)[C@@]1(C)C(=O)[C@H](OC(=O)C3CC3)C3=C(C)[C@@H](OC(=O)[C@H](O)[C@H](C=C(C)C)NC(=O)OC(C)(C)C)C[C@@](O)([C@@H](OC(=O)c4ccccc4)[C@H]21)C3(C)C	38	89%	30	11	Active	8000	580	75.6	inactive	46.5	1.44	182	0.62 to 1.46	1600	2300	–	–	–	–	–
CC(=O)O[C@@]1(C2/C(C)=C(/O)C(=O)C3=C(C)[C@@H](OC(=O)[C@H](O)[C@H](C=C(C)C)NC(=O)OC(C)(C)C)C[C@@](O)([C@H]2OC(=O)c2cccc(Cl)c2)C3(C)C)CO[C@H]1CCO (stereo partly drawn)	32	> 80%	6	14	Active	13900	820	1580	inactive	–	–	–	1.15	13000	28800	35	1376	16	17	–

The next lines start with results.

inhibition [1] [%]	inhibition [4]	inhibition [5] [%]	Activity [14] [%]	SMILES	Activity [2]	IC50 [3] [nM]	IC50 [6] [nM]	IC50 [7] [nM]	Activity [8]	IC50 [9] [nM]	IC50 [10] [nM]	IC50 [11] [nM]	IC50 [12] [nM]	IC50 [13] [nM]	IC50 [15] [nM]	Ratio IC50 [16]	Ratio IC50 [17]	Ratio IC50 [18]	Ratio IC50 [19]	other results
–	–	–	16	CC(=O)O[C@H]1C(=O)[C@@]2(C)[C@H]([C@H](OC(=O)c3cccc(N=[N+]=[N-])c3)[C@]3(O)C[C@H](OC(=O)[C@H](O)[C@@H](NC(=O)c4ccccc4)c4ccccc4)C(C)=C1C3(C)C)[C@]1(OC(C)=O)CO[C@@H]1C[C@@H]2O	–	–	–	–	–	–	–	–	–	–	–	–	–	–	–	–
33	55%	98	45	CC(=O)O[C@@]12CO[C@@H]1C[C@H](O)[C@@]1(C)C(=O)[C@H](O)C3=C(C)[C@@H](OC(=O)[C@H](O)[C@@H](NC(=O)OC(C)(C)C)c4ccccc4)C[C@@](O)([C@@H](OC(=O)c4ccccc4)[C@H]21)C3(C)C [DOCETAXEL ANHYDROUS]	Active	8400	860	3530	–	–	–	–	0.75	16200	41400	48	4704	19	10	–
9	Active	98	18	CC(=O)O[C@H]1C(=O)[C@@]2(C)[C@H]([C@H](OC(=O)c3ccccc3)[C@]3(O)C[C@H](OC(=O)[C@H](O)[C@@H](NC(=O)c4ccccc4)c4ccccc4)C(C)=C1C3(C)C)[C@]1(OC(C)=O)CO[C@@H]1C[C@@H]2O [PACLITAXEL]	Active	22200	2700	12600	–	3730	3.99	21200	2.39 to 3.85	152000	240000	89	5416	56	8	selectivity ratio [20]: 5520; Ratio [21]: 5.9; selectivity ratio [22]: 936
